Columns and labels:
[1] = Inhibition of GGTase1
[2] = Selectivity ratio of IC50 for farnesyltransferase to IC50 for GGTase1

CSCCc1c(-c2cccnc2)nn(-c2ccc(Cl)c(Cl)c2)c1OCCCC(=O)N[C@@H](Cc1ccccc1)C(N)=O
IC50 [1]: 8 nM | Ratio IC50 [2]: 250

Source: ChEMBL document CHEMBL1221190, “Therapeutic intervention based on protein prenylation and associated modifications” (Nat Chem Biol, 2006)
